Experimental data: US20100105651A1, “ANTAGONISTS OF SNS SODIUM CHANNELS” (priority 2005, published 2010)

Target: T1, human NaV1.8 (hNaV1.8) ion channel (Homo sapiens, UniProt Q9Y5Y9)
T1 construct: expressed in transfected cells
Assay: Inhibition of Human NaV1.8 stably expressed in SH-SY-5Y cells (membrane potential dye fluorescence assay)
Assay type: cell-based
Conditions: SH-SY-5Y cells stably expressing hNaV1.8; FLIPR membrane potential dye; 10 μM pyrethroid, 250 nM TTX; test range 100 μM-0.05 μM; read-out: hNav1.8 IC50
Procedure: Inhibition of Human NaV1.8 stably expressed in SH-SY-5Y cells
A SH-SY-5Y neuroblastoma cell line stably expressing the human NaV1.8 (hNaV1.8) ion channel was constructed. This cell line has been used to develop a medium to high throughput assay for determining the ability of test compounds to inhibit membrane depolarisation mediated via the hNaV1.8 channel.
SH-SY-5Y hNaV1.8 are grown in adherent monolayer culture using 50:50 Ham's F-12/EMEM tissue culture medium supplemented with 15% (v/v) foetal bovine serum; 2 mM L-glutamine, 1% NEAA and 600 μg·ml^−1 Geneticin sulphate. Cells are removed from the tissue culture flask using trypsin/EDTA and re-plated into black walled, clear bottom 96-well assay plates at 50,000 cells·well^−1 24 hours prior to assay.
On the day of assay the cell assay plates are washed to remove cell culture medium using a sodium free assay buffer (145 mM tetramethyl ammonium chloride; 2 mM calcium chloride; 0.8 mM magnesium chloride hexahydrate; 10 mM HEPES; 10 mM glucose; 5 mM potassium chloride, pH 7.4). Fluorescent membrane potential dye solution (FLIPR™ membrane potential dye, Molecular Devices Corporation), containing 10 μM of a pyrethroid to prevent channel inactivation and 250 nM tetrodotoxin (TTX) to reduce interference from TTX-sensitive sodium channels present in the cell line. Test compound, initially dissolved in dimethyl sulfoxide but further diluted in sodium free buffer, is added to achieve the final test concentration range of 100 μM-0.05 μM.
Cell plates are incubated for 30 minutes at room temperature to allow equilibration of dye and test compound. Plates are then transferred to a fluorescence plate reader for fluorescence measurement using an excitation wavelength of 530 nm whilst measuring fluorescence emission at 565 nm. […] Membrane depolarisation is registered by an increase in fluorescence emission at 565 nm.
The change in fluorescence seen in each test well upon the addition of sodium containing buffer is calculated relative to the baseline fluorescence for that well. This figure is then used for calculating the IC50 for each test compound.

T1 sequence (Q9Y5Y9 whole entry): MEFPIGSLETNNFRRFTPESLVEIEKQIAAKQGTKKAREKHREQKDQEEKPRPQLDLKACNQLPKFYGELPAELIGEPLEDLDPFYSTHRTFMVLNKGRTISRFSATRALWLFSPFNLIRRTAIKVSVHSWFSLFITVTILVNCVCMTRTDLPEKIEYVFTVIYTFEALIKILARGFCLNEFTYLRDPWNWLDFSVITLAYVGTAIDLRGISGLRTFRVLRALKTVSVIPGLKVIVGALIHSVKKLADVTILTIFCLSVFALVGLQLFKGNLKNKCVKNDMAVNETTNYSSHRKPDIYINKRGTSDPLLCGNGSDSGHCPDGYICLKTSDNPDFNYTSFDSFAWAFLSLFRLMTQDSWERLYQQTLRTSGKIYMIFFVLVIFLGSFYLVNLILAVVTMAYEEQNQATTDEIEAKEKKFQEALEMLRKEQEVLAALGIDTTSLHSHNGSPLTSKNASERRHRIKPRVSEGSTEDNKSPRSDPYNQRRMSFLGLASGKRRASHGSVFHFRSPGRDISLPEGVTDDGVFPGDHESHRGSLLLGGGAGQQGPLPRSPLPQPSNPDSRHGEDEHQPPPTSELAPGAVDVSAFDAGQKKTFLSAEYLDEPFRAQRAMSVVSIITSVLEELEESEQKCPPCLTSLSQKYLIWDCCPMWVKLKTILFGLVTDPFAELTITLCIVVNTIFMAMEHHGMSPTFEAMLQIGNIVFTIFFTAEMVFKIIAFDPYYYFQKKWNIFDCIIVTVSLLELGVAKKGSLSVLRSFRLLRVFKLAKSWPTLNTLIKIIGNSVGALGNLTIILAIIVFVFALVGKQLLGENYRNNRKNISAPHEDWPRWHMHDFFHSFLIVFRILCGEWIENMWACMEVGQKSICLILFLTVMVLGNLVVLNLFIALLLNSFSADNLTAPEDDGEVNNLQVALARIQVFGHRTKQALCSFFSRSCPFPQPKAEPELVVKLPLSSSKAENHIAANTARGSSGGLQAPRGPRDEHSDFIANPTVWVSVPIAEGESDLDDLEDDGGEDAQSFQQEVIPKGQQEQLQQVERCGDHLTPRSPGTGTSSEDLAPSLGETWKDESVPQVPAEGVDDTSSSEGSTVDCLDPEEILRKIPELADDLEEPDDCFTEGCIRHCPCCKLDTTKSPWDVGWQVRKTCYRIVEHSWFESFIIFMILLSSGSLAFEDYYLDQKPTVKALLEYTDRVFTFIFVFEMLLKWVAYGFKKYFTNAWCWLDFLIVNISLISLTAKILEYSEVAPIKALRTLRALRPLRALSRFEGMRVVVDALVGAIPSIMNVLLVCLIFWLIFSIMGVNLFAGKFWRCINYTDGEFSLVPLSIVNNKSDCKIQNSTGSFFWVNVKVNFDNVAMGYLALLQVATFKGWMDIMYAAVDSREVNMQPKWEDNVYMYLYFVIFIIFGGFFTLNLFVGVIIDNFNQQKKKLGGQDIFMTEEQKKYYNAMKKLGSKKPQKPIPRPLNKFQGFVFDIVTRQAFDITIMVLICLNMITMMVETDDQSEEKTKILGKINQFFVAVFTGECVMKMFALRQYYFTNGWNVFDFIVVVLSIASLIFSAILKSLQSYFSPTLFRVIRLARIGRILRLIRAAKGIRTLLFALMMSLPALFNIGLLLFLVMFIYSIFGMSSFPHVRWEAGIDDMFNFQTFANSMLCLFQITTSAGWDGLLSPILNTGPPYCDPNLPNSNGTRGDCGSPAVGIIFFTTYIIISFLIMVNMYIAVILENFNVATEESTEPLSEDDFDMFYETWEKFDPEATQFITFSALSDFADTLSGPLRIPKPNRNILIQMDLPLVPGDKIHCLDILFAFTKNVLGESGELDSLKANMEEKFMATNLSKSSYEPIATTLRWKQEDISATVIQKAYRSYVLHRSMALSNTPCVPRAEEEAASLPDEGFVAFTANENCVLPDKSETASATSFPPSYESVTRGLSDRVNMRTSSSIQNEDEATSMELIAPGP

Compound | IC50 [nM]
CC(c1ccc(Oc2ccccc2)cc1)N(C)C1CN(C(=O)Nc2ccc(C(F)(F)F)cc2)C1 (stereo not drawn) [Example 90, 3-{Methyl-[1-(4-phenoxy-phenyl)-ethyl]-amino}-azetidine-1-carboxylic acid (4-trifluoromethyl-phenyl)-amide] | 1430
CC(c1ccc(F)cc1)N(C)C1CN(C(=O)Nc2cc(C(F)(F)F)ccc2F)C1 (stereo not drawn) [Example 81, 3-{[1-(4-Fluoro-phenyl)-ethyl]-methyl-amino}-azetidine-1-carboxylic acid (2-fluoro-5-trifluoromethyl-phenyl)-amide] | 8370
CC(NC1CN(C(=O)Nc2ccc(C(F)(F)F)cc2)C1)c1ccc(Oc2ccccc2)cc1 (stereo not drawn) [Example 78, 3-[1-(4-Phenoxy-phenyl)-ethylamino]-azetidine-1-carboxylic acid (4-trifluoromethyl-phenyl)-amide] | 1300
O=C(Nc1ccc(Oc2ccc(F)cc2)cc1)N1CC(NC2CCc3cc(Cl)ccc32)C1 (stereo not drawn) [Example 18, 3-(5-Chloro-indan-1-ylamino)-azetidine-1-carboxylic acid [4-(4-fluoro-phenoxy)-phenyl]-amide] | 620
COc1ccc2c(c1)CCC2NC1CN(C(=O)Nc2ccc(Oc3ccc(F)cc3)cc2)C1 (stereo not drawn) [Example 21, 3-(5-Methoxy-indan-1-ylamino)-azetidine-1-carboxylic acid [4-(4-fluoro-phenoxy)-phenyl]-amide] | 310
CC(c1ccc(F)cc1Cl)N(C)C1CN(C(=O)Nc2cccc(Oc3ccccc3)c2)C1 (stereo not drawn) [Example 100, 3-{[1-(2-Chloro-4-fluoro-phenyl)-ethyl]-methyl-amino}-azetidine-1-carboxylic acid (3-phenoxy-phenyl)-amide] | 1210
CC(NC1CN(C(=O)Nc2ccc(Oc3ccc(F)cc3)cc2)C1)c1ccc(C#N)cc1 (stereo not drawn) [Example 127, 3-[1-(4-Cyano-phenyl)-ethylamino]-azetidine-1-carboxylic acid [4-(4-fluoro-phenoxy)-phenyl]-amide] | 2110
CC(c1ccc(F)cc1)N(C)C1CN(C(=O)Nc2ccc(F)c(C(F)(F)F)c2)C1 (stereo not drawn) [Example 83, 3-{[1-(4-Fluoro-phenyl)-ethyl]-methyl-amino}-azetidine-1-carboxylic acid (4-fluoro-3-trifluoromethyl-phenyl)-amide] | 3930
CC(NC1CN(C(=O)Nc2ccc(Oc3ccccc3)cc2)C1)c1c(F)cccc1F (stereo not drawn) [Example 130, 3-[1-(2,6-Difluoro-phenyl)-ethylamino]-azetidine-1-carboxylic acid (4-phenoxy-phenyl)-amide] | 750
CC(NC1CN(C(=O)Nc2cccc(Oc3ccccc3)c2)C1)c1ccc(F)cc1 (stereo not drawn) [Example 103, 3-[1-(4-Fluoro-phenyl)-ethylamino]-azetidine-1-carboxylic acid (3-phenoxy-phenyl)-amide] | 730
CC(NC1CN(C(=O)c2ccc(Oc3ccccc3)cc2)C1)c1ccccc1 (stereo not drawn) [Example 44, (4-Phenoxy-phenyl)-[3-(1-phenyl-ethylamino)-azetidin-1-yl]-methanone] | 730
CC(NC1CN(C(=O)Cc2ccc(Oc3ccccc3)cc2)C1)c1ccccc1 (stereo not drawn) [Example 46, 2-(4-Phenoxy-phenyl)-1-[3-(1-phenyl-ethylamino)-azetidin-1-yl]-ethanone] | 1070
CC(NC(=O)N1CC(NC2CCc3cc(F)ccc3C2)C1)c1ccc(C(F)(F)F)cc1 (stereo not drawn) [Example 5, 3-(6-Fluoro-1,2,3,4-tetrahydro-naphthalen-2-ylamino)-azetidine-1-carboxylic acid [1-(4-trifluoromethyl-phenyl)-ethyl]-amide] | 1740
O=C(c1ccccc1)c1ccc(NC(=O)N2CC(NC3CCc4cc(F)ccc43)C2)cc1 (stereo not drawn) [Example 31, 3-(5-Fluoro-indan-1-ylamino)-azetidine-1-carboxylic acid (4-benzoyl-phenyl)-amide] | 7250
Cc1ccccc1C(C)N(C)C1CN(C(=O)Nc2ccc(C(F)(F)F)cc2)C1 (stereo not drawn) [Example 110, 3-[Methyl-(1-o-tolyl-ethyl)-amino]-azetidine-1-carboxylic acid (4-trifluoromethyl-phenyl)-amide] | 2240
O=C(Cc1ccc(Oc2ccccc2)cc1)N1CC(NC2CCc3cc(F)ccc32)C1 (stereo not drawn) [Example 47, 1-[3-(5-Fluoro-indan-1-ylamino)-azetidin-1-yl]-2-(4-phenoxy-phenyl)-ethanone] | 1660
CC1(NC2CCc3cc(F)ccc32)CN(C(=O)Nc2ccc(Oc3ccc(F)cc3)cc2)C1 (stereo not drawn) [Example 41, 3-(5-Fluoro-indan-1-ylamino)-3-methyl-azetidine-1-carboxylic acid [4-(4-fluoro-phenoxy)-phenyl]-amide] | 560

Compound | IC50 [nM]
CN(C1CN(C(=O)Nc2ccc(Oc3ccccc3)cc2)C1)C(C)(C)c1ccccc1 [Example 99, 3-[Methyl-(1-methyl-1-phenyl-ethyl)-amino]-azetidine-1-carboxylic acid (4-phenoxy-phenyl)-amide] | 630
CC(NC1CN(C(=O)Nc2cccc(C(F)(F)F)c2)C1)c1ccccc1Cl (stereo not drawn) [Example 74, 3-[1-(2-Chloro-phenyl)-ethylamino]-azetidine-1-carboxylic acid (3-trifluoromethyl-phenyl)-amide] | 2860
O=C(Nc1ccc(Oc2ccccc2)cc1)N1CC(NC2CCc3cc(F)ccc32)C1 (stereo not drawn) [Example 27, 3-(5-Fluoro-indan-1-ylamino)-azetidine-1-carboxylic acid (4-phenoxy-phenyl)-amide] | 270
O=C(Nc1ccc(Oc2ccccc2)cc1)N1CC(NC2COc3ccccc32)C1 (stereo not drawn) [Example 123, 3-(2,3-Dihydro-benzofuran-3-ylamino)-azetidine-1-carboxylic acid (4-phenoxy-phenyl)-amide] | 1700
CC(NC1CN(C(=O)Nc2ccc(Oc3ccccc3)cc2)C1)c1ccc(Oc2ccccc2)cc1 (stereo not drawn) [Example 77, 3-[1-(4-Phenoxy-phenyl)-ethylamino]-azetidine-1-carboxylic acid (4-phenoxy-phenyl)-amide] | 1090
Cc1cccc(C(C)NC2CN(C(=O)Nc3ccc(Oc4ccccc4)cc3)C2)c1 (stereo not drawn) [Example 118, 3-(1-m-Tolyl-ethylamino)-azetidine-1-carboxylic acid (4-phenoxy-phenyl)-amide] | 430
Cc1ccccc1C(C)N(C)C1CN(C(=O)Nc2ccc(Oc3ccccc3)cc2)C1 (stereo not drawn) [Example 62, 3-[Methyl-(1-o-tolyl-ethyl)-amino]-azetidine-1-carboxylic acid (4-phenoxy-phenyl)-amide] | 720
O=C(Cc1ccc(Oc2ccc(F)cc2)cc1)N1CC(NC2Cc3ccc(F)cc3C2)C1 (stereo not drawn) [Example 50, 1-[3-(5-Fluoro-indan-2-ylamino)-azetidin-1-yl]-2-[4-(4-fluoro-phenoxy)-phenyl]-ethanone] | 780
NC(=O)C(NC1CN(C(=O)Nc2ccc(Oc3ccccc3)cc2)C1)c1ccccc1 (stereo not drawn) [Example 55, 3-[(Carbamoyl-phenyl-methyl)-amino]-azetidine-1-carboxylic acid (4-phenoxy-phenyl)-amide] | 7710
O=C(Cc1ccc(Oc2ccccc2)cc1)N1CC(NC2Cc3ccccc3C2)C1 [Example 45, 1-[3-(Indan-2-ylamino)-azetidin-1-yl]-2-(4-phenoxy-phenyl)-ethanone] | 650
O=C(Nc1ccc(C(F)(F)F)cc1)N1CC(NC2CCCc3ccccc32)C1 (stereo not drawn) [Example 36, 3-(1,2,3,4-Tetrahydro-naphthalen-1-ylamino)-azetidine-1-carboxylic acid (4-trifluoromethyl-phenyl)-amide] | 2770
CCCCOc1ccc(NC(=O)N2CC(N(C)C(C)c3ccccc3C)C2)cc1 (stereo not drawn) [Example 89, 3-[Methyl-(1-o-tolyl-ethyl)-amino]-azetidine-1-carboxylic acid (4-butoxy-phenyl)-amide] | 580
Cc1ccc(C(C)NC2CN(C(=O)Nc3ccc(Oc4ccccc4)cc3)C2)c(C)c1 (stereo not drawn) [Example 101, 3-[1-(2,4-Dimethyl-phenyl)-ethylamino]-azetidine-1-carboxylic acid (4-phenoxy-phenyl)-amide] | 290
C=CCOc1ccccc1CNC1CN(C(=O)Nc2ccc(OCc3ccccc3)cc2)C1 [Example 51, 3-(2-Allyloxy-benzylamino)-azetidine-1-carboxylic acid (4-benzyloxy-phenyl)-amide] | 340
CC(c1ccc(F)cc1)N(C)C1CN(C(=O)Nc2cccc(C(F)(F)F)c2)C1 (stereo not drawn) [Example 95, 3-{[1-(4-Fluoro-phenyl)-ethyl]-methyl-amino}-azetidine-1-carboxylic acid (3-trifluoromethyl-phenyl)-amide] | 4550
CCCCOc1ccc(NC(=O)N2CC(NC(C)c3ccccc3C)C2)cc1 (stereo not drawn) [Example 65, 3-(1-o-Tolyl-ethylamino)-azetidine-1-carboxylic acid (4-butoxy-phenyl)-amide] | 1420
